Laboratory results: PMC11945486, “TAS1R2/TAS1R3 Single-Nucleotide Polymorphisms Affect Sweet Taste Receptor Activation by Sweeteners: The SWEET Project” (Nutrients, 2025)
Like-named read-outs stand apart in the source and are kept apart here. No end group written: not given here.

T1: human TAS1R2-WT/TAS1R3-C757R (Homo sapiens, UniProt Q7RTX0+Q8TE23, C757R)
T1 construct: expressed in transfected cells; host or cells: HEK293T stably expressing Gα16gust44
T1 sequence (Q8TE23 20-839): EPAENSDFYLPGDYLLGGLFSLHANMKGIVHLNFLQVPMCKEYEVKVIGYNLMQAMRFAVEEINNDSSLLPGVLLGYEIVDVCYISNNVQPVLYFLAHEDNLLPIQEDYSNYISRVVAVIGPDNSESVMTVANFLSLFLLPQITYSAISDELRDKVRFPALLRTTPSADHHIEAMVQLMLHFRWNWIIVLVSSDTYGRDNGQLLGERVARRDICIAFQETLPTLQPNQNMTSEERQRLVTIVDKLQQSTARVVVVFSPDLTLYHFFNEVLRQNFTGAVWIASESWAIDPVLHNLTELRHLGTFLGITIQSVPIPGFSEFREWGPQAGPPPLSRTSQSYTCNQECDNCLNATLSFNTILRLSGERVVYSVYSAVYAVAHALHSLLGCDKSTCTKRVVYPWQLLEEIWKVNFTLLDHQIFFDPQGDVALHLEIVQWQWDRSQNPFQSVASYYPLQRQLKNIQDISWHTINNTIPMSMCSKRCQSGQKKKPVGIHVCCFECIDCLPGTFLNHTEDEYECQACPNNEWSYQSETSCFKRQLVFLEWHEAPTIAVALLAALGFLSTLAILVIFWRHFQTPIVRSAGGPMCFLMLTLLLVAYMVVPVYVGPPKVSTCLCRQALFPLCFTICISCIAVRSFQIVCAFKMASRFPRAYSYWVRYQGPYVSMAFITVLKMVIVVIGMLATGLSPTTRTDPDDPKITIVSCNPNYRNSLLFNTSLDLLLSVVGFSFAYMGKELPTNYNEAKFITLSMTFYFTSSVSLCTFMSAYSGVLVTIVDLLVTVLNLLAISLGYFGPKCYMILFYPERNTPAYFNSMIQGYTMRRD
T1 sequence (Q7RTX0 21-852 C757R): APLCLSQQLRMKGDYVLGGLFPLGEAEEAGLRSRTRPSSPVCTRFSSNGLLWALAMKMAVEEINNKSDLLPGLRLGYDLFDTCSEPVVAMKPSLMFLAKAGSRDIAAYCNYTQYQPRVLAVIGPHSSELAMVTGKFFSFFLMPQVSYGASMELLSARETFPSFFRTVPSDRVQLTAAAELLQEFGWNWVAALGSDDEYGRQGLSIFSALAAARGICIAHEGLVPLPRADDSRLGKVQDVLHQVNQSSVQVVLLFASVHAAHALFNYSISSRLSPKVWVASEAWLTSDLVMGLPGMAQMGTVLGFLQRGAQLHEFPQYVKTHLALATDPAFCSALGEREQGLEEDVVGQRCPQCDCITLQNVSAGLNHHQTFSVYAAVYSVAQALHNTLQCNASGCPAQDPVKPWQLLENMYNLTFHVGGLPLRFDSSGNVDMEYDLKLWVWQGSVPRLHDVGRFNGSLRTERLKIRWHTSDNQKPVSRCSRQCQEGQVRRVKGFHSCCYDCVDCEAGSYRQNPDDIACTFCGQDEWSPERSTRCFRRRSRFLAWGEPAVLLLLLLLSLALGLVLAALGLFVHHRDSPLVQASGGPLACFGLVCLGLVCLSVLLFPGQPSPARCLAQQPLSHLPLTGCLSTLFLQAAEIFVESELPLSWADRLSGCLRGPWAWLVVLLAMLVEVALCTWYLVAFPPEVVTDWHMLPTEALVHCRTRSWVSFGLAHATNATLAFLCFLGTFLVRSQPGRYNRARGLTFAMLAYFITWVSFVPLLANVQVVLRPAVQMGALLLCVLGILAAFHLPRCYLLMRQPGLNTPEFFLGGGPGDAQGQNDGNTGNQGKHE


Molecular target: T1, human TAS1R2-WT/TAS1R3-C757R
Experiment: Calcium mobilisation assay, TAS1R2-WT with TAS1R3 variant C757R
Format: cell-based
Details: for Max ΔF/F0: maximal signal amplitude
Excerpt: The coding sequences for TAS1R2 and TAS1R3 were commercially synthesised, and the human codon was optimised for expression in human cells. The coding sequences of human TAS1R2 and TAS1R3 were subcloned and inserted into the mammalian expression vectors pcDNA6/myc-HisA and pcDNA4/myc-HisA (Invitrogen; Thermo Fisher Scientific; Illkirch, France) between the EcoRI and NotI restriction sites, generating the plasmids pcDNA6-TAS1R2 and pcDNA4-TAS1R3, respectively. To increase protein expression in mammalian cells, an upstream start codon was used, which was a sequence called MAX, corresponding to the QBI SP163 element also described in pcDNA4-HisMax (Invitrogen; Thermo Fisher Scientific; Illkirch, France). To measure the expression level of the receptor by immunohistochemistry, we used the FLAG sequence ([…]) in the C-terminal position, which encodes the FLAG tag epitope. SNP variants of TAS1R2 and TAS1R3 were constructed based on […], respectively, using site-directed mutagenesis (Genewiz; Leipzig, Germany).
The HEK293T cells were kindly provided by Jay P. Slack (Givaudan Flavors Corporation; Cincinnati, OH, USA). HEK293T cells stably transfected with Gα16gust44 [43, 67] were seeded in poly-D-lysine-coated clear-bottom black 96-well plates (0.35 × 10^5 cells/well) in high-glucose DMEM supplemented with 2 mM GlutaMAX, 10% dialysed foetal bovine serum with penicillin/streptomycin and G418 (400 μg/mL) at 37 °C and 6.3% CO2 in a humidified atmosphere as previously reported. […] As a negative control, HEK293T cells were mock-transfected with the empty expression vector. After a further 24 h of incubation, the HEK293T cells were washed with C1 buffer (130 mM NaCl, 5 mM KCl, 10 mM HEPES pH 7.4 and 2 mM CaCl2). The 96-well plates containing the cells were then stimulated with sweet-tasting compounds. […] Different concentration ranges were tested depending on the sweet compound injected. The Ca^2+ changes were expressed as fractional changes in fluorescent light intensity: ΔF/F = (F − F0)/F0, where F was the fluorescent light intensity at each point, and F0 was the value of emitted fluorescent light prior to stimulus application. To calculate dose–response relationships, the changes in fluorescence upon stimulus application were averaged, mock-subtracted and baseline-corrected. The dose–response data obtained were adjusted using a 4-parameter logistic equation. The half-maximal effective concentrations (EC50 values) and maximal signal amplitudes were calculated using SigmaPlot software (version 15.0) (Systat Software; San Jose, CA, USA).
For in vitro calcium mobilisation assay performed on hTAS1R2-SNPs, hTAS1R3-SNPs and mTAS1R3-I60T, 6 to 7 concentrations were tested for each sweet compound, plus buffer alone. All concentration–receptor combinations were measured in duplicate, and each experiment was repeated at least 4 times (8 wells/concentration). Results were expressed for each concentration as ΔF/F mean ± SEM and represented as dose–response curves.

| Molecule | R1 = Variant EC50/WT EC50 | Max ΔF/F0 | EC50 (read-out: EC50) [µM] | EC50 (brazzein) [µg/mL] |
| --- | --- | --- | --- | --- |
| O=S(=O)(O)NC1CCCCC1 [Cyclamate, cyclamate] | – | – | 1150 ± 54 | – |
| C[C@H](CC[C@@H](O[C@@H]1O[C@H](CO[C@@H]2O[C@H](CO)[C@@H](O)[C@H](O)[C@H]2O)[C@@H](O)[C@H](O)[C@H]1O[C@@H]1O[C@H](CO)[C@@H](O)[C@H](O)[C@H]1O)C(C)(C)O)[C@H]1CC[C@@]2(C)[C@@H]3CC=C4[C@@H](CC[C@H](O[C@@H]5O[C@H](CO[C@@H]6O[C@H](CO)[C@@H](O)[C@H](O)[C@H]6O)[C@@H](O)[C@H](O)[C@H]5O)C4(C)C)[C@]3(C)[C@H](O)C[C@]12C [Mogroside V, mogroside V] | 0.7 | 1.03 ± 0.02 | 21.7 ± 1 | – |
| C=C(C)[C@@H]1CC=C(/C=N/O)CC1 [Perillartine, perillartine] | 0.6 | 1.23 ± 0.13 | 8.1 ± 2.6 | – |
| C=C1C[C@@]23CC[C@H]4[C@@](C)(CCC[C@@]4(C)C(=O)O[C@@H]4O[C@H](CO)[C@@H](O)[C@H](O[C@@H]5O[C@H](CO)[C@@H](O)[C@H](O)[C@H]5O)[C@H]4O[C@@H]4O[C@H](CO)[C@@H](O)[C@H](O)[C@H]4O)[C@@H]2CC[C@]1(O[C@@H]1O[C@H](CO)[C@@H](O)[C@H](O[C@@H]2O[C@H](CO)[C@@H](O)[C@H](O)[C@H]2O)[C@H]1O[C@@H]1O[C@H](CO)[C@@H](O)[C@H](O)[C@H]1O)C3 [Rebaudioside M, rebaudioside M] | 0.6 | 1.13 ± 0.04 | 24.3 ± 2.2 | – |
| OC[C@H]1O[C@H](O[C@]2(CCl)O[C@H](CCl)[C@@H](O)[C@@H]2O)[C@H](O)[C@@H](O)[C@H]1Cl [Sucralose] | 1.0 | 0.84 ± 0.03 | 113 ± 10 | – |
| brazzein (QDKCKKVYENYPVSKCQLANQCNYDCKLDKHARSGECFYDEKRNLQCICDYCEY; ends and bridges not checked; cysteine pairing not given here; UniProt P56552 1-54, looked up) [sweet-tasting protein obtained by recombinant production using the yeast Pichia pastoris] | 0.7 | 0.86 ± 0.06 | – | 74.2 ± 1.9 |

More lines, now with the values ahead:

| R1 = Variant EC50/WT EC50 | Max ΔF/F0 | EC50 (read-out: EC50) [µM] | EC50 (brazzein) [µg/mL] | Molecule |
| --- | --- | --- | --- | --- |
| 0.8 | 0.42 ± 0.01 | 468 ± 31 | – | CC1=CC(=O)NS(=O)(=O)O1 [Acesulfame K, acesulfame K] |
| 0.7 | 0.98 ± 0.01 | 36.5 ± 16 | – | COc1ccc(CCC(=O)c2c(O)cc(O[C@@H]3O[C@H](CO)[C@@H](O)[C@H](O)[C@H]3O[C@@H]3O[C@@H](C)[C@H](O)[C@@H](O)[C@H]3O)cc2O)cc1O [NHDC, neohesperidin dihydrochalcone] |
| 0.7 | 0.75 ± 0.03 | 0.88 ± 0.12 | – | COC(=O)[C@H](Cc1ccccc1)NC(=O)[C@H](CC(=O)O)NCCC(C)(C)C [Neotame] |
| 0.6 | 0.69 ± 0.05 | – | – | thaumatin |
| – | – | 6.7 ± 1.4 | – | thaumatin (protein, Eight disulfides, sweet-tasting plant protein, E957) ATFEIVNRCSYTVWAAASKGDAALDAGGRQLNSGESWTINVEPGTKGGKIWARTDCYFDDSGSGICKTGDCGGLLRCKRFGRPPTTLAEFSLNQYGKDYIDISNIKGFNVPMDFSPTTRGCRGVRCAADIVGQCPAKLKAPGGGCNDACTVFQTSEYCCTTGKCGPTEYSRFFKRLCPDAFSYVLDKPTTVTCPGSSNYRVTFCPTA |
